From PubChem BioAssay (NCI)
Where “and” joins values, the source holds several entries; their conditions need not be identical. Equal entries are not always repeated.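 Following 48 hours of exposure in 96-well plates, responses at five concentrations were used to interpolate endpoints linearly. GI50: concentration for 50% inhibition of growth. TGI: concentration producing complete growth inhibition.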

Legend:
Assay in all cases: NCI anticancer screen, dose series, 48 h
[1] = tested on: DU-145 prostate
[2] = tested on: COLO 205 colon
[3] = tested on: SF-539 CNS
[4] = tested on: RPMI-8226 leukemia
[5] = tested on: HS 578T breast
[6] = tested on: MDA-MB-231 breast
[7] = tested on: SNB-19 CNS
[8] = tested on: SF-295 CNS
[9] = tested on: OVCAR-8 ovarian
[10] = tested on: HCT-15 colon

Row | Compound | GI50 [1] | TGI [1] | GI50 [2] | TGI [2] | GI50 [3] | TGI [3] | GI50 [4] | TGI [4] | GI50 [5] | TGI [5] | GI50 [6] | TGI [6] | GI50 [7] | TGI [7] | GI50 [8] | TGI [8] | GI50 [9] | TGI [9] | GI50 [10] | TGI [10]
1 | CC(C)=Cc1cc(C)c2ccc(C)c3c2c1C(C)=C(O)C3=O | 36.3 µM | > 100 µM | 17.1 µM | 41.6 µM | 32 µM | 79.5 µM | 4.38 µM | 24.7 µM | 25.7 µM | 74.9 µM | 20.4 µM | 43.3 µM | 23.1 µM | 75.6 µM | 31.4 µM | 94.9 µM | 36.6 µM | > 100 µM | > 100 µM | > 100 µM
2 | O=C1NC(=O)C(=Cc2cn(Cc3ccccc3)c3ccccc23)C(=O)N1 | 17.5 µM | 40.4 µM | 1.13 µM | 9.44 µM | 34.3 µM | > 100 µM | 8.23 µM | > 61.3 µM | 8.71 µM | 29.3 µM | 15.2 µM | 43.9 µM | 16.2 µM | 38.9 µM | 1.39 µM | 34.5 µM | 17.1 µM | 43.8 µM | 14.3 µM | 38.2 µM
3 | N#CC1=C(N)NC(N2CCOCC2)=NC12Nc1ccccc1O2 (stereo not drawn) | 59.3 µM | > 100 µM | 67.7 µM | > 100 µM | 78.7 µM | > 100 µM | 15.4 µM | 61.3 µM | 23.6 µM | 68.1 µM | 89.9 µM | > 100 µM | 90.7 µM | > 100 µM | 38.5 µM | > 100 µM | 80.6 µM | > 100 µM | 38.2 µM | > 100 µM
4 | FC(F)c1ncc(-c2ccc(C(F)(F)F)cc2)c(NC2CCCCCC2)n1 | > 10 µM | > 10 µM | > 10 µM | > 10 µM | > 10 µM | > 10 µM | > 10 µM | > 10 µM | > 10 µM | > 10 µM | > 10 µM | > 10 µM | > 10 µM | > 10 µM | > 10 µM | > 10 µM | > 10 µM | > 10 µM | > 10 µM | > 10 µM
5 | O=S(=O)(/N=S(/Nc1ccccc1)C(F)(F)Cl)c1ccccc1 (stereo not drawn) |  | > 100 µM |  | > 100 µM |  | > 100 µM |  | > 100 µM |  | > 100 µM |  | > 100 µM |  | > 100 µM |  | > 100 µM |  | > 100 µM |  | > 100 µM
6 | CN1CCN(Cc2ccc(NC(=O)c3[nH]ncc3Nc3ncnc4[nH]ccc34)cc2)CC1 | 0.311 µM | > 100 µM | 0.193 µM | 0.427 µM | 0.133 µM | 0.429 µM | 2.43 µM | 6.59 µM | 0.197 µM | 0.98 µM | 0.371 µM | 0.941 µM | 0.373 µM | 6.59 µM | 0.211 µM | 5.01 µM | 0.387 µM | 3.09 µM | 1.01 µM | 62.7 µM
7 | Cc1cc(=O)[nH]c(N/N=C/c2ccccc2O)n1 | 15.3 µM | > 100 µM | 3.81 µM | > 100 µM | 7.06 µM | > 100 µM | 5.61 µM | > 100 µM | > 100 µM | > 100 µM | 6.05 µM | > 100 µM | 24.5 µM | > 100 µM | 3.96 µM | > 100 µM | 3.1 µM | > 100 µM | 4.63 µM | > 100 µM
8 | Cc1c(Nc2nccc3cc(CN4CC[C@@H](O)C4)cnc23)cccc1-c1cccc(-c2nc3cc(CN4CC[C@@H](C(=O)O)C4)cc(C#N)c3o2)c1C | > 100 µM | > 100 µM | 18.7 µM | > 100 µM | 5.9 µM | 28.1 µM | 2.26 µM | 26.5 µM | 15.1 µM | > 100 µM | 7.45 µM | 26.2 µM | 16.5 µM | 46.2 µM | 3.98 µM | > 100 µM | 12.4 µM | 36.2 µM | 3.79 µM | 15.8 µM
9 | CCCCC#Cc1c(I)n(C2OC(CO[Si](C)(C)C(C)(C)C)C3OC(C)(C)OC32)c(=O)n(C(=O)c2ccccc2)c1=O (stereo not drawn) | 2.25 µM | 4.68 µM | 1.59 µM | 3.14 µM | 3.54 µM | 12.8 µM | 3.64 µM | 17.4 µM | 7.17 µM | 43.6 µM | 17.7 µM | 37.7 µM | 14.1 µM | 28.4 µM | 12.7 µM | 27.3 µM | 5.61 µM | 18.6 µM | 1.63 µM | > 100 µM
10 | Cc1ccc2oc(=O)c3c(O)c4cccc(OC5OC(C)C6O[C@@H](c7ccccc7)OC6C5OC5OC(C)C(O)C(O)C5O)c4c4oc(=O)c1c2c34 (stereo partly drawn) |  | 1.27 µM | 0.0807 µM |  |  | 1.34 µM and 1.39 µM |  | 0.888 µM |  | 1.97 µM |  | 1.35 µM | 0.0266 µM |  | 0.0449 µM | 0.523 µM and 1.56 µM | 0.0562 µM | 2.74 µM and 1.43 µM | 0.261 µM | 1.5 µM and 5.01 µM
11 | CC(=O)c1c[nH]c2ccc(-c3ccnc(Nc4ccc(NC(=O)C5CCCC5)c(CN5CCOCC5)c4)n3)cc12 | 0.0362 µM | 2.38 µM | 0.0194 µM | 0.0679 µM | 0.0229 µM | 0.0681 µM | 0.045 µM | 0.262 µM | 0.0207 µM | 0.105 µM | 0.0315 µM | 0.294 µM | 0.041 µM | 7.96 µM | 0.0397 µM | 0.611 µM | 0.0362 µM | > 100 µM | 0.0558 µM | 0.758 µM
12 | CC1CCCC(C#N)(NOC2=NCCN2)C1 (stereo not drawn) | 24.1 µM | > 100 µM | 61.3 µM | > 100 µM | 15.5 µM | 40.4 µM | 38 µM | > 100 µM | 52.3 µM | > 100 µM | 19.4 µM | > 100 µM | > 100 µM | > 100 µM | 31 µM | > 100 µM | 41 µM | > 100 µM | 44.6 µM | > 100 µM
13 | CC(C)(C)c1ccc(C2CC(=O)C3=C(C2)Nc2ccccc2N(C(=O)c2ccccc2Cl)C3c2ccc(F)cc2)cc1 (stereo not drawn) | > 100 µM | > 100 µM | > 100 µM | > 100 µM | > 100 µM | > 100 µM | 4.14 µM | > 100 µM | > 100 µM | > 100 µM | > 100 µM | > 100 µM | > 100 µM | > 100 µM | > 100 µM | > 100 µM | > 100 µM | > 100 µM | > 100 µM | > 100 µM
14 | Cc1nn(C)c2ncnc(N/N=C/c3cccc(O)c3O)c12 | 0.558 µM | > 100 µM | 1.11 µM | > 78.7 µM | 0.371 µM | 7.1 µM | 0.526 µM | > 100 µM | 2.29 µM | > 100 µM | 0.486 µM | 39.5 µM | 0.664 µM | > 48.4 µM | 2.73 µM | 49.9 µM | 0.413 µM | > 100 µM | 0.225 µM | > 100 µM
